In patent US20230074209A1, “METHOD AND DEVICE FOR PROVIDING DRUG RECOMMENDATION” (Cancerfree biotech Ltd., priority 2021, published 2023):

Legend:
[1] = tested on: patient's CTC-derived organoid cultures; experiment: Drug sensitivity assay of CTC-derived organoid cultures (CellTiter Glo ATP, relative cell viability); type: cell-based, human; settings: for relative cell viability: CTC-derived organoid cultures of patient, one week co-culture; for CTC sensitivity profiling: CTCs of patient
Excerpt: In some embodiments, first, a liquid biopsy of the patient is obtained, and CTCs are then isolated from the liquid biopsy, and the CTCs are then expanded to obtain the CTC-derived organoid cultures. The liquid biopsy is, for example, a blood sample, such as a peripheral venous blood sample. In one example, the CTCs were isolated from the liquid biopsy, and the biomimetic cell culture system was then used to expand the CTCs in vitro to form the CTC-derived organoid cultures. In one example, Ficoll-Paque centrifugation was used to isolate peripheral blood mononuclear cells (PBMCs) containing the CTCs from the blood sample. The cells were then seeded onto a substrate of binary colloidal crystal (BCC) containing silica and polymethyl methacrylate (PMMA), and cultured in the biomimetic cell culture system for three weeks, with replacement of culture medium every four days. The expansion of the organoid cultures could be monitored by optical microscopy, and the presence of the CTCs could be confirmed by EpCAM and CD45 immunofluorescence staining. The CTC-derived organoid cultures were positive for EpCAM and negative for CD45 in the immunofluorescence staining
In one example, the CTC-derived organoid cultures were resuspended in a culture medium, and then divided into aliquots and loaded to 96-well plates for drug sensitivity assays. The aliquots were divided into a control group (not reacted with a drug) and drug test groups (respectively reacted with different drugs). For advanced pancreatic ductal adenocarcinoma, gemcitabine, 5-fluorouracil (5-FU), erlotinib, irinotecan, olaparib, oxaliplatin, paclitaxel, palbociclib and trametinib were selected as candidate drugs and tested against the CTC-derived organoid cultures at concentrations according to the clinical pharmacokinetics of each of the drugs, in order to mimic the effect of a clinical dose in patients. Different drug treatments were respectively added to each of the wells in the 96-well plates, after which cultures were continued to co-culture for one week. At the end of the assay period, viable cell counts were measured using cytosolic adenosine triphosphate (ATP) abundance (CellTiter Glo, Promega, Madison Wis., USA) via a luminometer (Promega). The relative cell viabilities of the CTC-derived organoid cultures respectively corresponding to the 9 candidate drugs were calculated by the formula: relative cell viability=(viable cell counts of the drug test group/viable cell counts of the control group)×100%. Lower cell viability following application of test treatments was indicative of greater drug sensitivity and better anti-tumor effect. However, the present disclosure is not limited to the above example, and other test methods or calculation methods can be used to obtain the relative cell viabilities.

pancreatic cancer = experiment: Clinical course of individual pancreatic cancer patients under treatment; type: in vivo, human; settings: patient
Method: In one example, clinical response to treatment in patients was evaluated using Response Evaluation Criteria in Solid Tumors (RECIST) version 1.1 criteria.

[2] = August 2019, 12 cycles of chemotherapy plus radiotherapy 44 Gy/20 Fx
[3] = locally advanced pancreatic cancer

O=C(c1cc(Cc2n[nH]c(=O)c3ccccc23)ccc1F)N1CCN(C(=O)C2CC2)CC1 [olaparib]
relative cell viability ([1]; metastatic pancreatic cancer): 16.7%

FOLFIRINOX
abdominal CT scan response, liver metastases (pancreatic cancer; [2]): partial response (PR) | abdominal CT scan response, pancreatic mass (pancreatic cancer; [2]): stable disease (SD) | follow-up CT scan response, pancreatic tumor (pancreatic cancer; November 2019, with liver, bone and peritoneal seeding): progressive disease (PD)

CCc1c2c(nc3ccc(OC(=O)N4CCC(N5CCCCC5)CC4)cc13)-c1cc3c(c(=O)n1C2)COC(=O)[C@]3(O)CC [irinotecan]
CTC sensitivity profiling [1, 3]: resistance

O=c1[nH]cc(F)c(=O)[nH]1 [5-FU, 5-fluorouracil]
CTC sensitivity profiling [1, 3]: resistance

O=C1[O][Pt]2([NH][C@@H]3CCCC[C@H]3[NH]2)[O]C1=O [oxaliplatin]
CTC sensitivity profiling [1, 3]: resistance

C#Cc1cccc(Nc2ncnc3cc(OCCOC)c(OCCOC)cc23)c1 [erlotinib]
relative cell viability ([1]; locally advanced pancreatic cancer, clinical-PK concentration): 27.8%

CC(=O)O[C@H]1C(=O)[C@@]2(C)[C@H]([C@H](OC(=O)c3ccccc3)[C@]3(O)C[C@H](OC(=O)[C@H](O)[C@@H](NC(=O)c4ccccc4)c4ccccc4)C(C)=C1C3(C)C)[C@]1(OC(C)=O)CO[C@@H]1C[C@@H]2O [paclitaxel]
CTC sensitivity profiling [1, 3]: resistance
